This passage reports ΔTm results from publication PMC5091913, “Identification and Validation of Small-Gatekeeper Kinases as Drug Targets in Giardia lamblia” (PLoS Neglected Tropical Diseases, 2016).

The target in one assay is T1, Gl50803_16034 (Giardia duodenalis, UniProt A8BHW1).
T1 construct: gene GL50803_0016034
T1 sequence (A8BHW1 1-432): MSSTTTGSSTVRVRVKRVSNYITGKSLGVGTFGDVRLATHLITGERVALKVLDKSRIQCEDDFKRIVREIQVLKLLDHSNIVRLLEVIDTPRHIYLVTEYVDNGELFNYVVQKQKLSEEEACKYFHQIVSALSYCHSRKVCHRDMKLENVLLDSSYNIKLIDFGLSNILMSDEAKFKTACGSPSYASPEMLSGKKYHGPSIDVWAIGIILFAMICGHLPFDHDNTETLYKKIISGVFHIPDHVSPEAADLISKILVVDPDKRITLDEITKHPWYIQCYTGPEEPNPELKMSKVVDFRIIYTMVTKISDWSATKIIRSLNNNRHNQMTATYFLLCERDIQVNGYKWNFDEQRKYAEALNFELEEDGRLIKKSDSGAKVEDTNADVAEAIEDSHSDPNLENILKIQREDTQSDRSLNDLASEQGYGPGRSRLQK
In words: thermal shift assay. It counts as binding.

For the next assay, the target named is T2, Gl50803_8445 (Giardia duodenalis, UniProt A8BXP9).
T2 construct: gene GL50803_008445
T2 sequence (A8BXP9 1-597): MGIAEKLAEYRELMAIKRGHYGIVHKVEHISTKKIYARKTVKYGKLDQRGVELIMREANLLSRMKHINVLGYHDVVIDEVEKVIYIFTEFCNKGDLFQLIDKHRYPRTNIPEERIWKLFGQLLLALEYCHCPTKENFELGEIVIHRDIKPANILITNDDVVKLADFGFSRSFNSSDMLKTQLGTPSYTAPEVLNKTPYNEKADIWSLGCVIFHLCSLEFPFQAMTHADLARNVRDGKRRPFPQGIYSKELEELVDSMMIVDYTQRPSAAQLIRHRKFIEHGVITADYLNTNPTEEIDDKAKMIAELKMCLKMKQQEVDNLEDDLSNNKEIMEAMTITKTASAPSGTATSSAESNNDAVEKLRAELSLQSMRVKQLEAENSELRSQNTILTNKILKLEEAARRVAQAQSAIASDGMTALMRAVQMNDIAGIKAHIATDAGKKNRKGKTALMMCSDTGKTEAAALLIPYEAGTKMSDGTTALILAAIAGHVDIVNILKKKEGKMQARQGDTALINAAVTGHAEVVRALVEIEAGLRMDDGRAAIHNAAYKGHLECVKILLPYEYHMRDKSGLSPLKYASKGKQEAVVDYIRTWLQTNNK
As to the kind of experiment: thermal shift assay. It counts as binding. The settings on record: also printed as 2°–3°.

Where two headings read alike, the source gives them in different places.

Consider `CCOc1ccc2cc(-c3nc(C(C)(C)C)n4ccnc(N)c34)ccc2c1` [compound 1213, 1213], for which the ΔTm on Gl50803_16034 (also printed as 2°–3°) and on Gl50803_8445 was ~ 3 ° in each case. For `Nc1ncnc2c1c(-c1ccc(-c3ccccc3)cc1)nn2CC1CCNCC1` [compound 1244, 1244], at Gl50803_16034, the ΔTm is listed as 5.2 °. Still for that read-out and setting: with `Nc1ncnc2c1c(-c1ccc3nc(-c4ccccc4)oc3c1)nn2CC1CCNCC1` [compound 1264, 1264] the figure was 6.5 °.
